Assay: Agonist activity at VDR in human HL60 cells assessed as induction of cell differentiation after 96 hrs by NBT assay

Row | EC50 [nM] | SMILES
1 | > 10000 | C=CCN(C)C(=O)c1ccc(C(CC)(CC)c2ccc(OCCC(O)(CC)CC)c(C)c2)n1CC
2 | 66 | CCn1c(C(=O)NC(C)C(=O)O)ccc1C(CC)(CC)c1ccc(OCCC(O)(CC)CC)c(C)c1 (stereo unspecified)
3 | 156 | CCn1c(C(=O)NCCN)ccc1C(CC)(CC)c1ccc(OCCC(O)(CC)CC)c(C)c1
4 | 450 | CCC(C)C(CO)NC(=O)c1ccc(C(CC)(CC)c2ccc(OCCC(O)(CC)CC)c(C)c2)n1CC (stereo unspecified)
5 | 2490 | CCn1c(C(=O)NC(CO)CCO)ccc1C(CC)(CC)c1ccc(OCCC(O)(CC)CC)c(C)c1 (stereo unspecified)
6 | 238 | CCn1c(C(=O)NCCCN2CCOCC2)ccc1C(CC)(CC)c1ccc(OCCC(O)(CC)CC)c(C)c1
7 | 520 | CCOC(=O)CN(C)C(=O)c1ccc(C(CC)(CC)c2ccc(OCCC(O)(CC)CC)c(C)c2)n1CC
8 | 82 | CCn1c(C(=O)NCCN(C)C)ccc1C(CC)(CC)c1ccc(OCCC(O)(CC)CC)c(C)c1
9 | 5 | CCn1c(C(=O)NCCCN(C)C)ccc1C(CC)(CC)c1ccc(OCCC(O)(CC)CC)c(C)c1
10 | 11 | CCN(CC)CCCNC(=O)c1ccc(C(CC)(CC)c2ccc(OCCC(O)(CC)CC)c(C)c2)n1CC
11 | 53 | CCn1c(C(=O)N(C)CCO)ccc1C(CC)(CC)c1ccc(OCCC(O)(CC)CC)c(C)c1
12 | 96 | CCn1c(C(=O)NC(C)CO)ccc1C(CC)(CC)c1ccc(OCCC(O)(CC)CC)c(C)c1 (stereo unspecified)
13 | 1080 | CCn1c(C(=O)NCC#N)ccc1C(CC)(CC)c1ccc(OCCC(O)(CC)CC)c(C)c1
14 | 89 | CCn1c(C(=O)N(C)CC(=O)O)ccc1C(CC)(CC)c1ccc(OCCC(O)(CC)CC)c(C)c1
15 | 2.3 | CCN(CC)CCNC(=O)c1ccc(C(CC)(CC)c2ccc(OCCC(O)(CC)CC)c(C)c2)n1CC

Further lines, the compound ahead of its results:

Row | SMILES | EC50 [nM]
16 | CCn1c(C(=O)NC(C)CO)ccc1C(CC)(CC)c1ccc(OCC(O)C(C)(C)C)c(C)c1 (stereo unspecified) | 8.5
17 | CCOc1ccc(NC(=O)c2ccc(C(CC)(CC)c3ccc(OCCC(O)(CC)CC)c(C)c3)n2CC)cc1 | 1630
18 | CCn1c(C(=O)NC(CC(=O)O)C(=O)OC)ccc1C(CC)(CC)c1ccc(OCCC(O)(CC)CC)c(C)c1 (stereo unspecified) | 26
19 | C#CCCOC(=O)c1ccc(C(CC)(CC)c2ccc(OCCC(O)(CC)CC)c(C)c2)n1CC | 6030
20 | CCn1c(C(=O)N(CCC#N)CCC#N)ccc1C(CC)(CC)c1ccc(OCCC(O)(CC)CC)c(C)c1 | > 10000
21 | CCn1c(C(=O)Nc2cccc(C(F)(F)F)c2)ccc1C(CC)(CC)c1ccc(OCCC(O)(CC)CC)c(C)c1 | 5900
22 | CCn1c(C(=O)Oc2ccc(CC(=O)OC)cc2)ccc1C(CC)(CC)c1ccc(OCCC(O)(CC)CC)c(C)c1 | > 10000
23 | C#CC(C)OC(=O)c1ccc(C(CC)(CC)c2ccc(OCCC(O)(CC)CC)c(C)c2)n1CC (stereo unspecified) | 2650
24 | CCn1c(C(=O)Nc2ccc(OC(F)(F)F)cc2)ccc1C(CC)(CC)c1ccc(OCCC(O)(CC)CC)c(C)c1 | > 10000
25 | CCC(C)C(NC(=O)c1ccc(C(CC)(CC)c2ccc(OCCC(O)(CC)CC)c(C)c2)n1CC)C(=O)O (stereo unspecified) | 860
26 | CCC(C)C(NC(=O)c1ccc(C(CC)(CC)c2ccc(OCCC(O)(CC)CC)c(C)c2)n1CC)C(=O)OC (stereo unspecified) | > 10000

Source: BindingDB's records for doi:10.1021/acs.jmedchem.8b00106 (China Pharmaceutical University, 2018)
